Patent publication US9157053B1, “Laundry washing machine deodorizer” (priority 2009, dated 2015)

How the values were obtained:
[1] = system: odor-causing biological growth (mold, mildew) in the machine; test: early odor-control trials in the TROMM laundry washer, before the standardized procedure; conditions: TROMM WM2688WM washer; Example 1: one ounce per load, 2.5 cu ft laundry, warm water
Source text: A TROMM Model # WM2688WM laundry washer made by LG Electronics Inc. was purchased. After a few months the odor problem was discovered. […] Applicant started to investigate why a new, expensive washer had this kind of problem. […] These are organic based materials. They provide a growth medium for mold, mildew and other biological growth. The odor is generated by this biofilm. The biofilm returns between each of the treatments.
Since the primary odor was thought to come from mildew, a well known material, 20 MULE TEAM BORAX® detergent was used as a detergent. The boron contained in the detergent is a toxic material that controls mold and fungus. […] The commercially available detergent contained a small amount of boron along with various other chemicals necessary for laundry cleaning.
One ounce of the borax was added to the machine for each load.
The laundry volume was standardized at a full basket of 2.5 Cu Ft.
All wash cycles were run with warm water.

biofilm = test: standardized test procedure for objectionable odors (whiff test, Pass/Fail) in a High Efficiency laundry washing machine; conditions: one ounce of composition per load, 14 days idle, TROMM WM2688WM HE washer, Tide Liquid HE detergent, 2.5 cu ft cotton laundry
Source text: The residue is a matrix of soap, detergent, cotton or wool fibers, and any other organic matter that was introduced by the dirty laundry. This provides a wide array of substances that can support biological growth. The exact mixture is an uncontrolled variable but it considered to be bounded by the use of one machine in one location. Experimental control also involves a standardized volume of the laundry load and the exclusive use of cotton items in the laundry washed. The detergent portion of the matrix was standardized by using only TIDE® Liquid HE Detergent.
A standardized test procedure was developed for a High Efficiency (HE) laundry washing machine. […]
The test procedure also involved a second growth period after the wash cycle where the damp laundry is allowed to sit idle in the laundry washing machine with the door closed. […] Given the above assumptions, it was reasonable to assume that the performance of the composition would be effectively quantified Personal experience with odor problem:
Experimentation with idle periods ranging from twenty four hours to three weeks verified that the intensity of the odor problem was a function of the biofilm growth in the machine during the idle period of the washing schedule. […] Therefore, it was determined that the criteria for effectiveness would be focused on the first load of the week. […]

| Compound | odor control [1] | first load odor control / first load performance (biofilm) |
| --- | --- | --- |
| O=C([O-])O.[Na+] [baking soda] | did not work well |  |
| sodium borate pentahydrate [5 mol concentration borax] |  | did increase the control of first load odors, but it was still erratic |
